Peptide text beside a SMILES is read from it.

One test has as its system human PC-3 tumor. Put plainly: Studies PC3-6 and PC3-12, human PC-3 prostate cancer nude mouse xenograft model. The class given is in vivo, nude mice. An excerpt:
Studies PC3-6 and PC3-12 (FIGS. 26-27) are consecutive group experiments designed to characterize the in vivo activity of PCK3145 in the human PC-3 prostate cancer nude mouse xenograft model and to explore relationships between dose, route and schedule of administration and the efficacy parameters of tumor growth (volume).
PC-3 cells harvested in mid-log phase were inoculated at 5×10^6 cells per mice via the subcutaneous route in the mice's back area. Tumors grown from this inoculum were excised at approximately day 32 to 35 post-tumor implantation (p.t.i) when tumor volume reached 200-300 mm^3 (i.e., cu mm). The necrotic tissue was removed and the viable tumor mass cut into small pieces (approximately 1 to 3 mm^3) were implanted SC in the flank region at two opposite sites of the mouse. Treatment with various concentrations of PCK3145 was initiated at day 3 post-tumor implantation (p.t.i) and was continued daily for 21 days. Subcutaneous injections were done below tumor growth sites. Intra-peritoneal injections were performed in the abdominal region. Intra-venous injections were performed via the lateral tail vein. The experiment was terminated 24 hours after the last treatment. Tumor measurements were taken at Days 11, 14, 16, 18, 20, 22 and 24 post-tumor implantation (p.t.i). Tumor volumes were calculated according to formula (a×b^2×0.5), where a—is the length of the long diameter, and b—is the width of the perpendicular small diameter.
Study No: PC3-6 illustrates the efficacy of PCK3145, injected subcutaneously, in tumor growth retardation in Nude mice, which have received PC-3 implants. Mice were separated in different group each receiving various amounts of PCK3145 (SEQ ID NO: 5) or control reagents. The different groups used in these experiments are illustrated in table 6 below. Each group contained 10 mice. Doxorubicin was administered as single bolus intra-venous injection on days 3 and 11 post-tumor implantation (p.t.i).
Study No: PC3-12 illustrates the efficacy of PCK3145 in tumor growth retardation in Nude mice, which have received PC-3 implants. Mice were separated in different group each receiving various amounts of PCK3145 (SEQ ID NO: 5) or control reagents. PCK3145 was injected either through intra-venous or intra-peritoneal route. The different groups used in these experiments are illustrated in table 7 below. Each group contained 9 mice.
(In general: A xenograft is tissue or cells of one species grown in another, often human tumour cells in immunodeficient mice.)

In a further test the test system is Dunning Mat Ly Lu tumors. Put plainly: Studies MLL-5 and MLL-6, Mat Ly Lu tumor implanted in Copenhagen rats. The class given is in vivo. As for the experimental part: Anti-tumor efficacy evaluation of PCK3145 against Mat Ly Lu (MLL) tumor implanted in Copenhagen rats was performed. (Protocol based on S. Garde et al.; The Prostate, 22: 225-233, 1993). Mat LyLu tumor cells were harvested in mid-log phase from the culture flasks by trypsinization, were centrifuged at 1200 rotation per minute (rpm) and washed three timed with Hanks balanced salt solution (HBSS). Following washing, cells were counted and adjusted to a concentration of 5×10^6 cells/ml in HBSS. A 0.1 ml volume of tumor cell inoculum containing 5×10^5 cells was administered subcutaneously into the flank region of each rat. Treatment started at day 3 post-tumor implantation (p.t.i) by local subcutaneous injection (i.e., in the shaved back area just below tumor implantation site) of various PCK3145 concentrations. This treatment was continued daily for 16 days. Experiments were terminated 24 hours after the last treatment. Tumor measurements were taken at days 7, 9, 11, 14, 16 and 18. Tumor volumes are calculated according to formula (a×b^2×0.5), where a—is the length of the long diameter, b—width of the perpendicular small diameter. At day 19 tumors of individual rats were excised and weighed.
Study No: MLL-5 illustrates the efficacy of PCK3145 (SEQ ID NO: 5) compared with polypeptide 7-21 (SEQ ID NO: 4) and polypeptide 76-94 (SEQ ID NO: 6) in tumor growth retardation in Copenhagen rats, which have received Mat Ly Lu implants. Mice were separated in different groups, each receiving various amount of PCK3145 (SEQ ID NO: 5) or control reagents. PCK3145 was injected through the subcutaneous route. The different groups used in these experiments are illustrated in table 8 below. Each group contained 8 mice.
Study No: MLL-6 illustrates the efficacy of PCK3145 (SEQ ID NO: 5) in tumor growth retardation in Copenhagen rats, which have received Mat Ly Lu implants. Mice were separated in different group each receiving various amounts of PCK3145 (SEQ ID NO: 5) or control reagents. PCK3145 was injected through the subcutaneous route. The different groups used in these experiments are illustrated in table 9 below. Each group contained 8 mice. Doxorubicin was administered as single bolus via intra-venous injection on day 3 p.t.i.

For `C[C@@H](O)[C@H](NC(=O)[C@H](CCC(=O)O)NC(=O)[C@H](Cc1ccc(O)cc1)NC(=O)[C@H](CS)NC(=O)[C@@H](NC(=O)[C@H](CS)NC(=O)[C@@H](NC(=O)[C@H](CCC(=O)O)NC(=O)[C@H](CS)NC(=O)[C@H](CC(N)=O)NC(=O)[C@H](CC(=O)O)NC(=O)[C@@H](NC(=O)[C@H](CCC(N)=O)NC(=O)[C@H](Cc1c[nH]c2ccccc12)NC(=O)[C@@H](N)CCC(=O)O)[C@@H](C)O)[C@@H](C)O)[C@@H](C)O)C(=O)O` [PCK3145, EWQTDNCETCTCYET] (H-EWQTDNCETCTCYET-OH; N-terminus and C-terminus assumed), the “anti-tumor effect on subcutaneous injection at a site distant from tumor (scruff of the neck)” value with human PC-3 tumor (10 μg/kg/day and 100 μg/kg/day) is “might not be efficacious enough”. Moreover, the “tumor growth (volume), study PC3-6” value in the test on human PC-3 tumor (10 μg/kg/day s.c. below tumor sites, daily for 21 days, p=0.001 to 0.002 vs PBS) is given as “significant PC-3 tumor growth retardation”. Besides, the “tumor growth (volume), study PC3-12” value is “significant tumor growth retardation” in the test with human PC-3 tumor (100 μg/kg/day intra-venous, days 13, 17 and 20); “No significant anti-tumor effect” in the test on human PC-3 tumor (10, 500 and 1000 μg/kg/day intra-venous); “trend towards significance” in the test with human PC-3 tumor (500 and 1000 μg/kg/day intra-venous). Also, the “anti-tumor effect (tumor volume), study MLL-5” value in the test on Dunning Mat Ly Lu tumors (1 μg/kg/day s.c.) is “No significant effect”; in the test with Dunning Mat Ly Lu tumors (10 μg/kg/day s.c., days 11, 13, 16, 18), “significant anti-tumor effect”. For the same molecule, the “tumor volume reduction over control, study MLL-6” value in the test with Dunning Mat Ly Lu tumors (100 μg/kg/day s.c., days 14, 16 and 18) was determined as 31%. Moreover, the “difference in tumor weight between control and treated group, study MLL-6” value in the test on Dunning Mat Ly Lu tumors (100 μg/kg/day, day 18 p.t.i) was found to be 20 gram. Further, in the test with Dunning Mat Ly Lu tumors (100 μg/kg/day, day 18 p.t.i, control 56.6 g), the “tumor weight, study MLL-6” value was 37.2 g. The “reduction in tumor mass, study MLL-6” value in the test with Dunning Mat Ly Lu tumors (100 μg/kg/day, day 18 p.t.i, p=0.0003) was 34%. In addition, in the test on Dunning Mat Ly Lu tumors (10 and 100 μg/kg/day s.c.), the “anti-tumor effect, study MLL-6” value is recorded as “significant dose-dependent anti-tumor effect”.
As for “polypeptide 7-21: PSP94 derived synthetic polypeptide from the amino terminus end, SEQ ID NO: 4 (NEGVPGDSTRKCMDL; Polypeptide 7-21)”, the “anti-tumor effect in the PC-3 nude mouse xenograft model” value with human PC-3 tumor (mouse, in vivo) is given as “also observed in the PC-3 nude mouse xenograft model”. In the test with Dunning Mat Ly Lu tumors (s.c., days 13, 16, 18, dose not given), the “anti-tumor effect (tumor volume), study MLL-5” value is on record as “comparable anti-tumor effect”.

The values above are taken from patent US8551951B2, “Pharmaceutical preparations and methods for inhibiting tumors” (Aenorasis SA Pharmaceuticals and Medical Devices, priority 2000, dated 2013).
